{"source": "paper PMC3703888", "about": "“Integration of Different “-omics” Technologies Identifies Inhibition of the IGF1R-Akt-mTOR Signaling Cascade Involved in the Cytotoxic Effect of Shikonin against Leukemia Cells” (Evidence-based Complementary and Alternative Medicine : eCAM, 2013)", "key": {"[1]": {"system": "U937 cells", "assay": "Stable-isotope dimethyl labeling quantitative proteomics", "type": "cell-based", "settings": "0.3 μM shikonin (IC50), 24 h vs DMSO", "experimental": "To examine quantitative changes in the proteome of U937 leukemia cells after shikonin treatment, the dimethyl labeling proteomics analysis was performed. Briefly, 5 × 10^6 U937 cells were seeded in 10 mL RPMI 1640 medium in a 25 cm^2 culture flask. Subsequently, cells were treated with 0.3 μM shikonin (IC50) or DMSO as solvent control for 24 h. After incubation cells were washed with PBS and protein extraction was performed using the M-PER Mammalian Protein Extraction Reagent (Thermo Scientific, Germany) containing a protease inhibitor cocktail (Roche, Germany), cells were incubated with the extraction reagent for 40 min at 4°C. After incubation, cellular debris was removed by centrifugation at 14000 ×g for 15 min. Supernatants were transferred into new tubes and an acetone precipitation of the proteins was performed. After precipitation, the acetone was removed and the protein pellet in each of the tube was further diluted to 1 μg/μL with 50 mM TEABC and reduced with 5 mM TCEP for 1 h at 37°C, followed by alkylation using 2 mM MMTS for 45 min at room temperature. For the proteolytic digestion, the modified tube-gel digestion protocol was applied and the detergent residue was checked using the method described previously. Two 200 μg proteolytic protein mixtures from DMSO and shikonin treated cells were first dissolved in 200 μL of 100 mM TEABC (pH 8.5) and, respectively, mixed with 20 μL of formaldehyde and formaldehyde-13C, d2 (4%, diluted with H2O). After vortexing (5 min) and centrifugation, each of the sample solutions was mixed with 20 μL of 600 mM sodium cyanoborohydride solution. The sample solutions were vortexed (10 min) and centrifuged again and then allowed to react for 30 min at 25°C. To quench the reaction, ammonium hydroxide (7% in water, 10 μL) was added to each sample solution. Finally, 16 μL of formic acid was added to acidify each of the sample solutions and two samples were further combined for strong cation exchange (SCX) fractionation.\nFor SCX fractionation, the buffer SCX-A (5 mM KH2PO4 in 25% ACN at pH 3) and SCX-B (5 mM KH2PO4 and 350 mM KCl in 25% ACN at pH 3) were used as the mobile phase. The peptide mixtures were reconstituted in buffer SCX-A and then loaded into a PolySULFOETHYL A column (200 × 2.1 mm, 5 μm, 300Å, PolyLC, Columbia, MD) for 10 min at the flow rate of 0.2 mL/min. Peptides were fractionated using a 75 min gradient from 0 to 100% of buffer SCX-B. Fractions were collected every three minutes from the retention time of 10 to 55 min using a fraction collector (BioFrac Fraction Collector, BioRad Laboratories, Hercules, CA). The peptide mixtures in each of the fraction were further analyzed by the LC-MS/MS.\nLC-MS/MS analysis was performed with a nanoUHPLC system (nanoACQUITY UPLC, Waters, Millford, MA) coupled online to the nanoelectrospray source of a hybrid quadrupole time-of-flight mass spectrometer (Q-TOF-MS) (SYNAPT HDMS G2, Waters, Manchester, UK). For LC-MS/MS analysis, water with 0.1% FA and ACN with 0.1% FA were used as the mobile phase. The sample was injected into a trap column (Symmetry C18, 5 μm, 180 μm × 20 mm, Waters, Milford, MA) and separated online with a reverse phase column (BEH C18, 1.7 μm, 75 μm × 250 mm, Waters, Milford, MA) at the flow rate of 300 nL/min using either a 95 min gradient with 5–90% ACN/water ratio. The mass spectrometry instruments were all operated in the positive ion mode, and data-dependent acquisition methods were applied for all experiments. The acquisition settings were set to one full MS scan (350–1600 m/z) with a scan time of 1 second and switched to six product ion scans (50–1900 m/z) with 0.4 second scan time when a precursor ion charge was 2+, 3+, or 4+, and the intensity was higher than 200 counts. The data files generated from LC-MS/MS were processed by UniQua and further analyzed by the MASCOT and Trans Proteomics Pipeline (TPP) 1 version 4.4 rev. 1, and the details and criteria of data processing were described previously."}, "[2]": {"system": "U937 cells", "assay": "miRNA microarray", "type": "cell-based, human", "settings": "shikonin at IC50 concentration, 24 h", "experimental": "miRNA from U937 cells after 24 h of treatment with shikonin at IC50 concentration was isolated using miRNeasy Kit from Qiagen (Hilden, Germany) according to the manufacture's instruction. The quality of miRNA was checked by gel analysis using the Small RNA Nano chip assay on an Agilent 2100 Bioanalyzer (Agilent Technologies GmbH, Germany). The miRNA microarray was performed at the Institute for Molecular Biology (IMB). Microarray experiments were performed in duplicates for treated and untreated samples. Human miRNA microarray chips (8 × 60 K, Agilent Technologies) were used. Probe labeling and hybridization were carried out following the miRNA microarray system with miRNA complete labeling and hyb kit protocol (Agilent Technologies). Briefly, extracted RNA was treated with phosphatase. Dephosphorylated RNA was fluorescently labeled by ligation of Cyanine 3-pCp molecules to the 3′ end of RNA molecules using Agilent's miRNA Complete Labeling and Hyb Kit. The labeled RNA was desalted and hybridized for 20 hours at 55°C and 20 rpm. Microarray slides were washed and scanned with Agilent Microarray Scanning system. Images were analyzed and data were extracted, background subtracted, and normalized using the standard procedures of Agilent Feature Extraction Software. The expression data obtained was filtered with Chipster data analysis platform. These steps include filtering of miRNAs by two times standard deviation of deregulated genes and a subsequent assessment of significance using empirical Bayes t-test (P < 0.05)."}}, "data": [{"smiles": "CC(C)=CC[C@@H](O)C1=CC(=O)c2c(O)ccc(O)c2C1=O", "note": "[shikonin]", "values": [{"measurement": "FC protein 5′-Nucleotidase domain-containing protein 2", "setting": "[1]", "result": "−5.4"}, {"measurement": "FC protein 60S ribosomal protein L24", "setting": "[1]", "result": "−7.5"}, {"measurement": "FC protein ATP-dependent RNA helicase DDX3Y", "setting": "[1]", "result": "−4.3"}, {"measurement": "FC protein Cell differentiation protein RCD1 homolog", "setting": "[1]", "result": "+10.0"}, {"measurement": "FC protein Golgi phosphoprotein 3", "setting": "[1]", "result": "−3.5"}, {"measurement": "FC protein Heme oxygenase 1", "setting": "[1]", "result": "+14.3"}, {"measurement": "FC protein Heterogeneous nuclear ribonucleoprotein H2", "setting": "[1]", "result": "−4.5"}, {"measurement": "FC protein Hexokinase-1", "setting": "[1]", "result": "−20.5"}, {"measurement": "FC protein Histone H2B type 2-E", "setting": "[1]", "result": "+7.1"}, {"measurement": "FC protein Histone H4", "setting": "[1]", "result": "+11.1"}, {"measurement": "FC protein LIM domain and actin-binding protein 1", "setting": "[1]", "result": "+6.7"}, {"measurement": "FC protein Leucine-rich repeat-containing protein 58", "setting": "[1]", "result": "−3.5"}, {"measurement": "FC protein Mannose-6-phosphate isomerase", "setting": "[1]", "result": "+7.7"}, {"measurement": "FC protein Methylosome protein 50", "setting": "[1]", "result": "−4.0"}, {"measurement": "FC protein Neuronal-specific septin-3", "setting": "[1]", "result": "+6.7"}, {"measurement": "FC protein Rho GTPase-activating protein 4", "setting": "[1]", "result": "−3.1"}, {"measurement": "FC protein Schlafen family member 11", "setting": "[1]", "result": "+6.7"}, {"measurement": "FC protein Sorting nexin-17", "setting": "[1]", "result": "+9.1"}, {"measurement": "FC protein Vacuolar protein sorting-associated protein 11 homolog", "setting": "[1]", "result": "−20.0"}, {"measurement": "FC protein WD repeat-containing protein 3", "setting": "[1]", "result": "+12.1"}, {"measurement": "FC miRNA miR-19b-2-5p", "setting": "[2]", "result": "+5.2"}, {"measurement": "FC miRNA miR-20b-3p", "setting": "[2]", "result": "+3.7"}, {"measurement": "FC miRNA miR-30a-3p", "setting": "[2]", "result": "+2.9"}, {"measurement": "FC miRNA miR-33b-5p", "setting": "[2]", "result": "+3.1"}, {"measurement": "FC miRNA miR-92a-3p", "setting": "[2]", "result": "+2.7"}, {"measurement": "FC miRNA miR-155-3p", "setting": "[2]", "result": "+3.4"}, {"measurement": "FC miRNA miR-181a-2-3p", "setting": "[2]", "result": "+3.2"}, {"measurement": "FC miRNA miR-193b-3p", "setting": "[2]", "result": "+2.7"}, {"measurement": "FC miRNA miR-223-5p", "setting": "[2]", "result": "+2.7"}, {"measurement": "FC miRNA miR-513a-5p", "setting": "[2]", "result": "−4.7"}, {"measurement": "FC miRNA miR-630", "setting": "[2]", "result": "−5.1"}, {"measurement": "FC miRNA miR-638", "setting": "[2]", "result": "−6.1"}, {"measurement": "FC miRNA miR-1185-5p", "setting": "[2]", "result": "−5.2"}, {"measurement": "FC miRNA miR-1207-5p", "setting": "[2]", "result": "−6.3"}, {"measurement": "FC miRNA miR-1246", "setting": "[2]", "result": "−6.0"}, {"measurement": "FC miRNA miR-1290", "setting": "[2]", "result": "−6.2"}, {"measurement": "FC miRNA miR-1915-3p", "setting": "[2]", "result": "−13.8"}, {"measurement": "FC miRNA miR-2861", "setting": "[2]", "result": "−9.8"}, {"measurement": "FC miRNA miR-3907", "setting": "[2]", "result": "+2.8"}, {"measurement": "FC miRNA miR-4299", "setting": "[2]", "result": "−30.6"}]}]}
